These results are taken from US20050197338A1, “Substituted pyrazole urea compounds for the treatment of inflammation” (priority 2003, published 2005).

The target in this assay is T1, human IKK-2 (rhIKK-2 homodimer) (Homo sapiens, UniProt O14920).
T1 construct: FLAG (DYKDDDDKD) (C); made in house; host or cells: insect cells (baculovirus, pFastBac)
T1 sequence (O14920 1-756): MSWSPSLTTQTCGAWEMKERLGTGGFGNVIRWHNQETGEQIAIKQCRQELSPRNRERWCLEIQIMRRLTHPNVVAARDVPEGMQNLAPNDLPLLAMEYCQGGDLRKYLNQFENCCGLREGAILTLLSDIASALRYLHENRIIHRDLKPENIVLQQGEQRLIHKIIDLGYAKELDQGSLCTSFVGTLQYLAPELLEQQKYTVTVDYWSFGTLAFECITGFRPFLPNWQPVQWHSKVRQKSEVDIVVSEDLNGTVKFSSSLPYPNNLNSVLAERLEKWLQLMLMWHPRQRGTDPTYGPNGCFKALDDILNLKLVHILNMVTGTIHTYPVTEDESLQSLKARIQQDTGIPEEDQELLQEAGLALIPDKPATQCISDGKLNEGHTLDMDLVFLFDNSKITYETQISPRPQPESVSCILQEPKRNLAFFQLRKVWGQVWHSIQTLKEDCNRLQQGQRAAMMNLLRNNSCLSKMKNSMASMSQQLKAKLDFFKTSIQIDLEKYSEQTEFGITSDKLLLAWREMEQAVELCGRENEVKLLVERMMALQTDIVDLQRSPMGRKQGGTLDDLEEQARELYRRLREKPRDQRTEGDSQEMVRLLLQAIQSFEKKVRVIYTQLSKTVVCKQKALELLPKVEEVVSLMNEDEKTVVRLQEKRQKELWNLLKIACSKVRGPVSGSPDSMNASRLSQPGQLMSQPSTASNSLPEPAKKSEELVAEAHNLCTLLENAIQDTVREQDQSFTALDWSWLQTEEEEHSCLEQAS
In words: IKK-2 Resin Enzyme Assay (Human IKK-2 Enzyme Assay). Format: biochemical. As to conditions: human IKK-2, resin enzyme assay; read-out: IC50 (μM) hIKK-2. The procedure, abridged: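 C-terminally FLAG-tagged human IKK-2 homodimer, baculovirus-expressed in insect cells and anti-FLAG purified. Reaction mix: 5 μM biotinylated IκBα peptide (Ser32/Ser36 region), 1 μM ATP with [γ-33P]ATP, 2 mM MgCl2, 2 mM MnCl2, 10 mM NaF, 1 mM DTT, 25 mM HEPES pH 7.6. Incubated 30 min at 25 °C; IC50 derived.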
For the molecule `NC(=O)Nc1cn(-c2ccc(-c3cccc(OCc4ncco4)c3)cc2)nc1C(N)=O` [Example 254, 4-[(aminocarbonyl)amino]-1-[3′-(1,3-oxazol-2-ylmethoxy)-1,1′-biphenyl-4-yl]-1H-pyrazole-3-carboxamide], the IC50 turned out to be 0.352 µM.

With `NC(=O)Nc1cn(-c2ccc(-c3cc(F)ccc3OCc3ncco3)cc2)nc1C(N)=O` [Example 255, 4-[(aminocarbonyl)amino]-1-[5′-fluoro-2′-(1,3-oxazol-2-ylmethoxy)-1,1′-biphenyl-4-yl]-1H-pyrazole-3-carboxamide], the IC50 stood at 0.762 µM.

With `CNC(=O)COc1ccc(F)cc1-c1ccc(-n2cc(NC(N)=O)c(C(N)=O)n2)cc1` [Example 256, 4-[(aminocarbonyl)amino]-1-{5′-fluoro-2′-[2-(methylamino)-2-oxoethoxy]-1,1′-biphenyl-4-yl}-1H-pyrazole-3-carboxamide], the IC50 came to 1.07 µM.

For the molecule `CCNC(=O)COc1ccc(F)cc1-c1ccc(-n2cc(NC(N)=O)c(C(N)=O)n2)cc1` [Example 257, 4-[(aminocarbonyl)amino]-1-{5′-fluoro-2′-[2-(ethylamino)-2-oxoethoxy]-1,1′-biphenyl-4-yl}-1H-pyrazole-3-carboxamide], the IC50 is 1.35 µM.

On to `NC(=O)Nc1cn(-c2ccc(-c3cccc(OCC(=O)O)c3)cc2)nc1C(N)=O` [Example 258, [(4′-{3-(aminocarbonyl)-4-[(aminocarbonyl)amino]-1H-pyrazol-1-yl}-1,1′-biphenyl-3-yl)oxy]acetic acid], for which the IC50 was determined as 1.02 µM.

`NC(=O)Nc1cn(-c2ccc(-c3cc(F)ccc3OCC(=O)O)cc2)nc1C(N)=O` [Example 259, [(4′-{3-(aminocarbonyl)-4-[(aminocarbonyl)amino]-1H-pyrazol-1-yl}-5-fluoro-1,1′-biphenyl-2-yl)oxy]acetic acid]: the IC50 turned out to be 4.01 µM.

As for `CC1(C)OB(c2ccc(-n3cc(NC(N)=O)c(C(N)=O)n3)cc2)OC1(C)C` [Example 260, 4-[(aminocarbonyl)amino]-1-[4-(4,4,5,5-tetramethyl-1,3,2-dioxaborolan-2-yl)phenyl]-1H-pyrazole-3-carboxamide], the IC50 was determined as 0.512 µM.

Turning to `NC(=O)Nc1cn(-c2ccc(-c3ccccc3O)c(F)c2)nc1C(N)=O` [Example 261, 4-[(aminocarbonyl)amino]-1-(2-fluoro-2′-hydroxy-1,1′-biphenyl-4-yl)-1H-pyrazole-3-carboxamide], the IC50 was 1.18 µM.

Take `NC(=O)Nc1cn(-c2ccc(-c3ccc(F)cc3O)c(F)c2)nc1C(N)=O` [Example 262, 4-[(aminocarbonyl)amino]-1-(2,4′-difluoro-2′-hydroxy-1,1′-biphenyl-4-yl)-1H-pyrazole-3-carboxamide]: the IC50 amounted to 0.842 µM.

In the case of `NC(=O)Nc1cn(-c2ccc(Sc3ccccc3F)c(Cl)c2)nc1C(N)=O` [Example 270, 4-[(aminocarbonyl)amino]-1-{3-chloro-4-[(2-fluorophenyl)thio]phenyl}-1H-pyrazole-3-carboxamide], the IC50 was 3.7 µM.

In the case of `CCOc1cc(-n2cc(NC(N)=O)c(C(N)=O)n2)ccc1-c1ccc(O)cc1` [Example 274, 4-[(aminocarbonyl)amino]-1-(2-ethoxy-4′-hydroxy-1,1′-biphenyl-4-yl)-1H-pyrazole-3-carboxamide], the IC50 is > 20 µM.

`CCc1cc(Br)ccc1N/N=C(\C#N)C(N)=O` [Example 277, (2E)-2-[(4-bromo-2-ethylphenyl)hydrazono]-2-cyanoacetamide]: the IC50 amounted to 7.59 µM.

`CCc1cc(Br)ccc1-n1cc(NC(N)=O)c(C(N)=O)n1` [Example 281, 4-[(aminocarbonyl)amino]-1-(4-bromo-2-ethylphenyl)-1H-pyrazole-3-carboxamide]: the IC50 was determined as 10.6 µM.

On to `CCc1cc(-c2cccc(O)c2)ccc1-n1cc(NC(N)=O)c(C(N)=O)n1` [Example 282, 4-[(aminocarbonyl)amino]-1-(3-ethyl-3′-hydroxy-1,1′-biphenyl-4-yl)-1H-pyrazole-3-carboxamide], for which the IC50 is 12.6 µM.

Turning to `NC(=O)Nc1cn(-c2ccc([S+]([O-])C3CCCC3)cc2)nc1C(N)=O` (centres unmarked) [Example 283, 1-(3-carbamoyl-1-(4-(cyclopentylsulfinyl)phenyl)-1H-pyrazol-4-yl)urea], the IC50 is 0.431 µM.

Take `NC(=O)Nc1cn(-c2ccc([S+]([O-])c3ccccn3)cc2)nc1C(N)=O` (centres unmarked) [Example 284, 1-(3-carbamoyl-1-(4-(pyridin-2-ylsulfinyl)phenyl)-1H-pyrazol-4-yl)urea]: the IC50 turned out to be 0.986 µM.

Consider `NC(=O)Nc1cn(-c2ccc([S+]([O-])c3ccccc3O)cc2)nc1C(N)=O` (centres unmarked) [Example 285, 1-(1-(4-(2-hydroxyphenylsulfinyl)phenyl)-3-carbamoyl-1H-pyrazol-4-yl)urea], for which the IC50 amounted to 0.578 µM.

Take `NC(=O)Nc1cn(-c2ccc(S(=O)(=O)c3ccccn3)cc2)nc1C(N)=O` [Example 286, 1-(3-carbamoyl-1-(4-(pyridin-2-ylsulfonyl)phenyl)-1H-pyrazol-4-yl)urea]: the half-inhibitory concentration (IC50) came to 0.663 µM.

`NC(=O)Nc1cn(-c2ccc(S(=O)(=O)C3CCCC3)cc2)nc1C(N)=O` [Example 287, 1-(3-carbamoyl-1-(4-(cyclopentylsulfonyl)phenyl)-1H-pyrazol-4-yl)urea]: the IC50 is 0.187 µM.

Take `NC(=O)Nc1cn(-c2ccc(S(=O)(=O)c3ccccc3O)cc2)nc1C(N)=O` [Example 288, 1-(1-(4-(2-hydroxyphenylsulfonyl)phenyl)-3-carbamoyl-1H-pyrazol-4-yl)urea]: the IC50 stood at 0.252 µM.

Consider `NC(=O)Nc1cn(-c2ccc(Sc3cccc(Cl)c3)cc2)nc1C(N)=O` [Example 289, 1-(1-(4-(3-chlorophenylthio)phenyl)-3-carbamoyl-1H-pyrazol-4-yl)urea], for which the IC50 turned out to be 10.6 µM.

Regarding `NC(=O)Nc1cn(-c2ccc(Sc3ccc(Cl)cc3)cc2)nc1C(N)=O` [Example 290, 1-(1-(4-(4-chlorophenylthio)phenyl)-3-carbamoyl-1H-pyrazol-4-yl)urea], the IC50 worked out at 4.56 µM.

As for `CC(C)CCSc1ccc(-n2cc(NC(N)=O)c(C(N)=O)n2)cc1` [Example 291, 1-(3-carbamoyl-1-(4-(isopentylthio)phenyl)-1H-pyrazol-4-yl)urea], the IC50 was 6.23 µM.

Regarding `Cc1cc(-n2cc(NC(N)=O)c(C(N)=O)n2)ccc1-c1ccc(F)cc1OCC(N)=O` [Example 296, 1-(2′-carbamoylmethoxy-4′-fluoro-2-methyl-biphenyl-4-yl)-4-ureido-1H-pyrazole-3-carboxylic acid amide], the IC50 was 0.656 µM.

Regarding `Cc1cc(-n2cc(NC(N)=O)c(C(N)=O)n2)ccc1Sc1ccc(F)cc1` [Example 297, 1-[4-(4-fluoro-phenylsulfanyl)-3-methyl-phenyl]-4-ureido-1H-pyrazole-3-carboxylic acid amide], the IC50 amounted to 1.94 µM.

Turning to `Cc1cc(-n2cc(NC(N)=O)c(C(N)=O)n2)ccc1S(=O)(=O)c1ccc(F)cc1` [Example 298, 1-[4-(4-fluoro-benzenesulfonyl)-3-methyl-phenyl]-4-ureido-1H-pyrazole-3-carboxylic acid amide], the IC50 stood at 0.724 µM.

For `COc1ccc(CNC(=O)c2nn(-c3cccc(O)c3)cc2NC(N)=O)cc1` [Example 299, 1-(3-hydroxy-phenyl)-4-ureido-1H-pyrazole-3-carboxylic acid 4-methoxy-benzylamide], the IC50 turned out to be 0.595 µM.

Turning to `NC(=O)Nc1cn(-c2ccc(S(N)(=O)=O)cc2)nc1C(N)=O` [Example 301, 4-[(aminocarbonyl)amino]-1-[4-(aminosulfonyl)phenyl]-1H-pyrazole-3-carboxamide], the IC50 was 0.123 µM.

Consider `Cc1cc(-n2cc(NC(N)=O)c(C(N)=O)n2)ccc1Cl` [Example 302, 4-[(aminocarbonyl)amino]-1-(4-chloro-3-methylphenyl)-1H-pyrazole-3-carboxamide], for which the IC50 turned out to be 0.229 µM.

`NC(=O)Nc1cn(-c2ccc(C(=O)N3CCCCC3)cc2)nc1C(N)=O` [Example 303, 4-[(aminocarbonyl)amino]-1-[4-(piperidin-1-ylcarbonyl)phenyl]-1H-pyrazole-3-carboxamide]: the IC50 came to 1.4 µM.

Turning to `Cc1cc(-n2cc(NC(N)=O)c(C(N)=O)n2)ccn1` [Example 322, 4-[(aminocarbonyl)amino]-1-(2-methylpyridin-4-yl)-1H-pyrazole-3-carboxamide], the IC50 came out at 2.19 µM.

For the molecule `CCNC(=O)COc1cccc(-c2ccc(-n3cc(NC(N)=O)c(C(N)=O)n3)cc2)c1` [Example 335, 4-[(aminocarbonyl)amino]-1-{3′-[2-(ethylamino)-2-oxoethoxy]-1, 1′-biphenyl-4-yl}-1H-pyrazole-3-carboxamide], the IC50 was 0.21 µM.
